Some results are limits rather than exact numbers.

For one experiment, the target named is T1, IDH1 R132H (Homo sapiens, UniProt O75874, R132H).
T1 construct: 6xHis
Put plainly: Biochemical assay for IDH inhibition (NADPH fluorescence), mutant IDH1 R132H. The settings on record: 50 nM IDH1-R132H, 1 hour pre-incubation, in triplet. In short, it runs like this:
(§1)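 The read-out was the linear-phase loss of NADPH fluorescence (340/460 nm) over 15 min, background-subtracted and normalized to DMSO wells, giving triplicate IC50 values. Beforehand, R132H (50 nM) or R132C (25 nM) was exposed to compound for 1 h at room temperature with 1.33 mM α-KG at pH 7.5, and the reaction was triggered by adding an 80 μM NADPH solution.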

For another experiment, the target named is T2, IDH1 R132C (Homo sapiens, UniProt O75874, R132C).
T2 construct: 6xHis
As to the kind of experiment: Biochemical assay for IDH inhibition (NADPH fluorescence), mutant IDH1 R132C. The note with it: 25 nM IDH1-R132C, 1 hour pre-incubation, in triplet. In short, it runs like this:
as §1

The target in experiment [1] is T3, IDH (endogenous IDH1 R132C) in HT1080 cell (Homo sapiens, UniProt O75874, R132C).
T3 construct: which harbor endogenous heterozygous IDH1 R132C and R132H mutation respectively and accumulate D-2-HG
Put plainly: Cell-based assay for IDH inhibition (decrease of D-2-HG) in HT1080 cells. The settings on record: human fibrosarcoma cell line HT1080, 16 hours treatment, D-2-HG by LC-MS, in triplet. In short, it runs like this: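 LC-MS/MS quantification of D-2-HG, normalized to glutamate, follows a 16 h compound exposure of IDH1 R132C HT1080 cells in DMEM with 10% FBS. Extraction uses pre-chilled 40% methanol/40% acetonitrile in water. Triplicate determinations; IC50 from D-2-HG levels relative to DMSO-treated cells.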

T2 sequence (O75874 whole entry R132C): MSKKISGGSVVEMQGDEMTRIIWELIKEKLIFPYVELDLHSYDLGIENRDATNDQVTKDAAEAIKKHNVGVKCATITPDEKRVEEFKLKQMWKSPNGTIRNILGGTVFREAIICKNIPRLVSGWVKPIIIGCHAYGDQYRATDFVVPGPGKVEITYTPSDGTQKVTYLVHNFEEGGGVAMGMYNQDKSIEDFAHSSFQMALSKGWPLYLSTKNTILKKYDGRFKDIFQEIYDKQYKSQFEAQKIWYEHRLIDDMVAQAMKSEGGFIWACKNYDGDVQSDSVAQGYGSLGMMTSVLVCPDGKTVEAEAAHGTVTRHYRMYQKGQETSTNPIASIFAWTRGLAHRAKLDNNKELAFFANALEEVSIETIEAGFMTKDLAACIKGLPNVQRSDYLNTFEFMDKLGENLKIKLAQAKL
T3 sequence (O75874 2-414 R132C): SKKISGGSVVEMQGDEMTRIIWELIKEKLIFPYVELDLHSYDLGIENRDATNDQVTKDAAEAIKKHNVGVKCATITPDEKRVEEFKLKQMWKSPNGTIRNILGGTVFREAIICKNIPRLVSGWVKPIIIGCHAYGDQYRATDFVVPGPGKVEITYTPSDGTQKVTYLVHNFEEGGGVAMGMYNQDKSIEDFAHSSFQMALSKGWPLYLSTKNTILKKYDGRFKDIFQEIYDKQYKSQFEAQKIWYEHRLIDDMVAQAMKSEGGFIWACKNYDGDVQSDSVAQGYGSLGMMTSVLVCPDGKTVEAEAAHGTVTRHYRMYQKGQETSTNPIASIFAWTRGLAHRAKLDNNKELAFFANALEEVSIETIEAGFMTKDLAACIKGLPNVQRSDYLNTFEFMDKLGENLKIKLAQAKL
T1 sequence (O75874 whole entry R132H): as the sequence (O75874 whole entry R132C) above, with C132H counted along it

As usually defined, the IC50 is the concentration that inhibits the measured activity by half. Take `CCN1Cc2c(ccnc2N[C@@H](C)c2cc(F)c(-c3ccnc(-c4ccn(C)c4)c3)cc2F)C1=O` [Compound 92, (S)-4-((1-(2,5-difluoro-4-(2-(1-methyl-1H-pyrrol-3-yl)pyridin-4-yl)phenyl)ethyl)amino)-2-ethyl-2,3-dihydro-1H-pyrrolo[3,4-c]pyridin-1-one]: the IC50 on IDH1 R132H is above 1000 nM; on IDH1 R132C it was above 1000 nM; in experiment [1], 100 to 500 nM.

Regarding `CCN1Cc2c(ccnc2N[C@@H](C)c2cc(F)c(-c3ccnc(C4COC4)c3)cc2F)C1=O` [Compound 93, (S)-4-((1-(2,5-difluoro-4-(2-(oxetan-3-yl)pyridin-4-yl)phenyl)ethyl)amino)-2-ethyl-2,3-dihydro-1H-pyrrolo[3,4-c]pyridin-1-one], the IC50 (at IDH1 R132H; on IDH1 R132C; in experiment [1]) was above 1000 nM in each case.

Take `CCN1Cc2c(ccnc2N[C@@H](C)c2cc(F)c(-c3ccnc(C4(O)COC4)c3)cc2F)C1=O` [Compound 94, (S)-4-((1-(2,5-difluoro-4-(2-(3-hydroxyoxetan-3-yl)pyridin-4-yl)phenyl)ethyl)amino)-2-ethyl-2,3-dihydro-1H-pyrrolo[3,4-c]pyridin-1-one]: the IC50 (at IDH1 R132H; at IDH1 R132C; in experiment [1]) was above 1000 nM in each case.

For `CCN1Cc2c(ccnc2N[C@@H](C)c2cc(F)c(-c3ccnc(Cl)c3)cc2F)C1=O` [Compound 95, (S)-4-((1-(4-(2-chloropyridin-4-yl)-2,5-difluorophenyl)ethyl)amino)-2-ethyl-2,3-dihydro-1H-pyrrolo[3,4-c]pyridin-1-one], the IC50 on IDH1 R132H was above 1000 nM; on IDH1 R132C, above 1000 nM; in experiment [1] it was 500 to 1000 nM.

For the compound `CCN1Cc2c(ccnc2N[C@@H](C)c2cc(F)c(-c3ccnc(-c4ccnc(Cl)c4)c3)cc2F)C1=O` [Compound 96, (S)-4-((1-(4-(2′-chloro-[2,4′-bipyridin]-4-yl)-2,5-difluorophenyl)ethyl)amino)-2-ethyl-2,3-dihydro-1H-pyrrolo[3,4-c]pyridin-1-one], the values for the half-maximal inhibitory concentration (IC50) (on IDH1 R132H; on IDH1 R132C; in experiment [1]) were 100 to 500 nM, 500 to 1000 nM and 100 to 500 nM, respectively.

With `CCN1Cc2c(ccnc2N[C@@H](C)c2cc(F)c(-c3ccnc(C4CC(F)(F)C4)c3)cc2F)C1=O` [Compound 97, (S)-4-((1-(4-(2-(3,3-difluorocyclobutyl)pyridin-4-yl)-2,5-difluorophenyl)ethyl)amino)-2-ethyl-2,3-dihydro-1H-pyrrolo[3,4-c]pyridin-1-one], the concentration for half-maximal inhibition (IC50) at IDH1 R132H lay within 100 to 500 nM; on IDH1 R132C it was 500 to 1000 nM; in experiment [1], 100 to 500 nM.

As to `CCN1Cc2c(ccnc2N[C@@H](C)c2cc(F)c(-c3ccnc(-c4ccccc4)c3)cc2F)C1=O` [Compound 98, (S)-4-((1-(2,5-difluoro-4-(2-phenylpyridin-4-yl)phenyl)ethyl)amino)-2-ethyl-2,3-dihydro-1H-pyrrolo[3,4-c]pyridin-1-one], the results for the IC50 (at IDH1 R132H; at IDH1 R132C; in experiment [1]) were 500 to 1000 nM, above 1000 nM and 100 to 500 nM, respectively.

Consider `CCN1Cc2c(ccnc2N[C@@H](C)c2cc(F)c(-c3ccnc(-c4cccnc4)c3)cc2F)C1=O` [Compound 99, (S)-4-((1-(4-([2,3′-bipyridin]-4-yl)-2,5-difluorophenyl)ethyl)amino)-2-ethyl-2,3-dihydro-1H-pyrrolo[3,4-c]pyridin-1-one], for which the IC50 on IDH1 R132H is above 1000 nM; at IDH1 R132C it was above 1000 nM; in experiment [1], 500 to 1000 nM.

Turning to `CCN1Cc2c(ccnc2N[C@@H](C)c2cc(F)c(-c3ccnc(-c4cncc(Cl)c4)c3)cc2F)C1=O` [Compound 100, (S)-4-((1-(4-(5′-chloro-[2,3′-bipyridin]-4-yl)-2,5-difluorophenyl)ethyl)amino)-2-ethyl-2,3-dihydro-1H-pyrrolo[3,4-c]pyridin-1-one], the IC50 at IDH1 R132H is 100 to 500 nM; at IDH1 R132C, 500 to 1000 nM; in experiment [1] it was 100 to 500 nM.

The record behind these values is patent US12441725B2, “ISO-citrate dehydrogenase (IDH) inhibitor” (ZHEJIANG METON PHARMACEUTICAL CO., LTD, priority 2019, dated 2025).
